According to patent US20240376085A1 (Janssen Pharmaceutica NV, priority 2021, published 2024):

Experiments:
IL-17A : IL-17RA binding = biological target: T1, IL-17A : IL-17RA binding (Homo sapiens, UniProt Q16552, K93Q); experiment: IL-17A(FLAG-tagged):IL-17RA(His-tagged) binding disruption Eu-HTRF assay, Protocol 1; conditions: FLAG-IL-17A 2.5 nM at 2x final concentration; average if tested more than once
T1 construct: Name: IL-17A-Flag
Method in brief: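 IC50 came from a one-site competition fit of the acceptor/donor (665/620 nm) HTRF ratio. His-tagged IL-17RA, Eu-anti-FLAG and D2-anti-His were added after a 1 h rt compound preincubation with FLAG-tagged IL-17A dimer in PBS/0.01% Triton X-100, followed by 2 h at rt before reading.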

[1] = test system: IL-17A-induced G-CSF production in human normal keratinocyte (NHK); experiment: NHK assay: IL-17A-induced G-CSF production in normal human keratinocytes; format: cell-based; conditions: 24 h, IL-17A 5 ng/mL, average if tested more than once
Method in brief: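 Stimulus rhIL-17A 5 ng/mL final, premixed 1 h rt with compound; adult NHK, 5% FBS, 0.2% DMSO. Viability by CellTiter-Glo vs DMSO.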

T1 sequence (Q16552 with tags, fused parts or gaps K93Q): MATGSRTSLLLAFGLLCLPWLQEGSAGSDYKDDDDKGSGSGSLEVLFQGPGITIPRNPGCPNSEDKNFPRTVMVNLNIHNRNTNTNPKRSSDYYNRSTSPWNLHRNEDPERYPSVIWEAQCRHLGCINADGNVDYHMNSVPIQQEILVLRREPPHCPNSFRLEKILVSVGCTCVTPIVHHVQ

| IC50 (IL-17A : IL-17RA binding) | SMILES | IC50 ([1]; Homo sapiens, Keratinocyte) | IC50 [1] |
| --- | --- | --- | --- |
| > 100 nM | CC(C)n1ncc(F)c1C(=O)NC(CC(C)(C)C(F)(F)F)c1nc2cc([C@@H](C)NC(=O)CCC(F)(F)F)ccc2[nH]1 (single isomer, unassigned) [Example 194, 4-Fluoro-1-isopropyl-N—((S*)-4,4,4-trifluoro-3,3-dimethyl-1-(5-((R)-1-(4,4,4-trifluorobutanamido)ethyl)-1H-benzo[d]imidazol-2-yl)butyl)-1H-pyrazole-5-carboxamide] | > 100 nM | – |
| > 100 nM | C[C@@H](NC(=O)CCC(F)(F)F)c1ccc2[nH]c([C@@H](NC(=O)[C@H]3C[C@@H]3F)C3CCC(F)(F)CC3)nc2c1 [Example 98, (1R,2S)—N—((S)-(4,4-Difluorocyclohexyl)(5-((R)-1-(4,4,4-trifluorobutanamido)ethyl)-1H-benzo[d]imidazol-2-yl)methyl)-2-fluorocyclopropane-1-carboxamide] | > 100 nM | – |
| > 100 nM | C[C@@H](NC(=O)CCC(F)(F)F)c1ccc2[nH]c([C@@H](NC(=O)[C@@H]3C[C@H]3F)C3CCC(F)(F)CC3)nc2c1 [Example 100, (1S,2R)—N—((S)-(4,4-Difluorocyclohexyl)(5-((R)-1-(4,4,4-trifluorobutanamido)ethyl)-1H-benzo[d]imidazol-2-yl)methyl)-2-fluorocyclopropane-1-carboxamide] | > 100 nM | – |
| > 100 nM | C[C@@H](NC(=O)CCC(F)(F)F)c1ccc2nc([C@@H](NC(=O)c3cn(CC4CC(F)(F)C4)nn3)C3CCC(F)(F)CC3)[nH]c2c1 [Example 65, 1-((3,3-Difluorocyclobutyl)methyl)-N—((S)-(4,4-difluorocyclohexyl)(6-((R)-1-(4,4,4-trifluorobutanamido)ethyl)-1H-benzo[d]imidazol-2-yl)methyl)-1H-1,2,3-triazole-4-carboxamide] | > 100 nM | – |
| > 100 nM | CC(NC(=O)CCC(F)(F)F)c1ccc2nc([C@H](CC(C)(C)C(F)(F)F)NC(=O)c3ccnn3CCC(F)(F)F)[nH]c2c1 (single isomer, unassigned) [Example 229, N—((S)-4,4,4-Trifluoro-3,3-dimethyl-1-(6-((S*)-1-(4,4,4-trifluorobutanamido)ethyl)-1H-benzo[d]imidazol-2-yl)butyl)-1-(3,3,3-trifluoropropyl)-1H-pyrazole-5-carboxamide] | > 100 nM | – |
| > 100 nM | CC(CC(=O)N[C@H](C)c1ccc2nc([C@@H](NC(=O)c3cc(F)ccc3F)C3CCC(F)(F)CC3)[nH]c2c1)C(F)(F)F (single isomer, unassigned) [Example 136, N—((S)-(4,4-Difluorocyclohexyl)(6-((R)-1-((R*)-4,4,4-trifluoro-3-methylbutanamido)ethyl)-1H-benzo[d]imidazol-2-yl)methyl)-2,5-difluorobenzamide] | > 100 nM | – |
| 50 to 100 nM | CC(C)(O)c1nonc1C(=O)N[C@@H](COC(C)(C)C(F)(F)F)c1nc2cc([C@H](NC(=O)CC3CC(F)(F)C3)C3CC3)ccc2[nH]1 [Example 168, N—((R)-1-(5-((R)-Cyclopropyl(2-(3,3-difluorocyclobutyl)acetamido)methyl)-1H-benzo[d]imidazol-2-yl)-2-((1,1,1-trifluoro-2-methylpropan-2-yl)oxy)ethyl)-4-(2-hydroxypropan-2-yl)-1,2,5-oxadiazole-3-carboxamide] | > 100 nM | – |
| > 100 nM | Cn1nccc1C(=O)N[C@H](c1nc2cc(C(NC(=O)CCC(F)(F)F)C3CCC3)ccc2[nH]1)C1CCC(F)(F)CC1 (single isomer, unassigned) [Example 42, N—((S)-(5-((S*)-Cyclobutyl(4,4,4-trifluorobutanamido)methyl)-1H-benzo[d]imidazol-2-yl)(4,4-difluorocyclohexyl)methyl)-1-methyl-1H-pyrazole-5-carboxamide] | < 50 nM | – |
| < 50 nM | O=C(CC1CC(F)(F)C1)N[C@@H](c1ccc2nc([C@@H](NC(=O)c3nonc3C3CC3)[C@@H]3C[C@@H]4[C@H](C3)C4(F)F)[nH]c2c1)C1CC1 [Example 239, 4-Cyclopropyl-N—((S)-(6-((R)-cyclopropyl(2-(3,3-difluorocyclobutyl)acetamido)methyl)-1H-benzo[d]imidazol-2-yl)((1R,3s,5S)-6,6-difluorobicyclo[3.1.0]hexan-3-yl)methyl)-1,2,5-oxadiazole-3-carboxamide] | < 50 nM | – |
| > 100 nM | CC(C)c1nnsc1C(=O)N[C@H](c1nc2cc([C@@H](C)NC(=O)CCC(F)(F)F)ccc2[nH]1)C1CCC(F)(F)CC1 [Example 188, N—((S)-(4,4-Difluorocyclohexyl)(5-((R)-1-(4,4,4-trifluorobutanamido)ethyl)-1H-benzo[d]imidazol-2-yl)methyl)-4-isopropyl-1,2,3-thiadiazole-5-carboxamide] | > 100 nM | – |
| > 100 nM | CC(CC(=O)N[C@H](C)c1ccc2nc([C@@H](NC(=O)c3ccnn3CCC(F)(F)F)C3CCC(F)(F)CC3)[nH]c2c1)C(F)(F)F (single isomer, unassigned) [Example 138, N—((S)-(4,4-Difluorocyclohexyl)(6-((R)-1-((S*)-4,4,4-trifluoro-3-methylbutanamido)ethyl)-1H-benzo[d]imidazol-2-yl)methyl)-1-(3,3,3-trifluoropropyl)-1H-pyrazole-5-carboxamide] | – | 50 to 100 nM |
| < 50 nM | Cc1nonc1C(=O)N[C@H](c1nc2ccc([C@H](NC(=O)CC3CC(F)(F)C3)C3CC3)cc2[nH]1)C1CCC2(CC1)CC2 (stereo partly drawn) [Example 169, N—((S)-(6-((R)-Cyclopropyl(2-(3,3-difluorocyclobutyl)acetamido)methyl)-1H-benzo[d]imidazol-2-yl)(spiro[2.5]octan-6-yl)methyl)-4-methyl-1,2,5-oxadiazole-3-carboxamide] | < 50 nM | – |
| > 100 nM | C[C@@H](NC(=O)CCC(F)(F)F)c1ccc2[nH]c([C@@H](NC(=O)c3cnn(CC4CCC4(F)F)n3)C3CCC(F)(F)CC3)nc2c1 (stereo partly drawn) [Example 87, 2-((2,2-Difluorocyclobutyl)methyl)-N—((S)-(4,4-difluorocyclohexyl)(5-((R)-1-(4,4,4-trifluorobutanamido)ethyl)-1H-benzo[d]imidazol-2-yl)methyl)-2H-1,2,3-triazole-4-carboxamide] | > 100 nM | – |
| 50 to 100 nM | CC(C)n1nccc1C(=O)N[C@H](c1nc2cc([C@H](NC(=O)CC3CC(F)(F)C3)C3CC3)ccc2[nH]1)C1CCC(F)(F)CC1 [Example 142, N—((S)-(5-((R)-Cyclopropyl(2-(3,3-difluorocyclobutyl)acetamido)methyl)-1H-benzo[d]imidazol-2-yl)(4,4-difluorocyclohexyl)methyl)-1-isopropyl-1H-pyrazole-5-carboxamide] | < 50 nM | – |
| > 100 nM | Cn1nccc1C(=O)N[C@H](c1nc2cc(C(NC(=O)CCC(F)(F)F)C3CC3)ccc2[nH]1)C1CCC(F)(F)CC1 (single isomer, unassigned) [Example 55, N—((S)-(5-((R*)-Cyclopropyl(4,4,4-trifluorobutanamido)methyl)-1H-benzo[d]imidazol-2-yl)(4,4-difluorocyclohexyl)methyl)-1-methyl-1H-pyrazole-5-carboxamide] | – | > 100 nM |
| > 100 nM | C[C@@H](NC(=O)CCC(F)(F)F)c1ccc2[nH]c([C@@H](NC(=O)CC3CC3(F)F)C3CCC(F)(F)CC3)nc2c1 (single isomer, unassigned) [Example 108, N—((R)-1-(2-((S)-(4,4-Difluorocyclohexyl)(2-((S*)-2,2-difluorocyclopropyl)acetamido)methyl)-1H-benzo[d]imidazol-5-yl)ethyl)-4,4,4-trifluorobutanamide] | – | > 100 nM |
| > 100 nM | C[C@@H](NC(=O)CCC(F)(F)F)c1ccc2[nH]c([C@@H](NC(=O)c3cnn(CC4CC4)n3)C3CCC(F)(F)CC3)nc2c1 [Example 8, 2-(Cyclopropylmethyl)-N—[(S)-(4,4-difluorocyclohexyl)-[6-[(1R)-1-(4,4,4-trifluorobutanoylamino)ethyl]-1H-benzimidazol-2-yl]methyl]triazole-4-carboxamide] | > 100 nM | – |
| > 100 nM | C[C@@H](NC(=O)CCC(F)(F)F)c1ccc2[nH]c([C@@H](NC(=O)c3cnnn3CCOC(F)(F)F)C3CCC(F)(F)CC3)nc2c1 [Example 36, N—[(S)-(4,4-Difluorocyclohexyl)-[6-[(1R)-1-(4,4,4-trifluorobutanoylamino)ethyl]-1H-benzimidazol-2-yl]methyl]-3-[2-(trifluoromethoxy)ethyl]triazole-4-carboxamide] | 50 to 100 nM | – |

| SMILES | IC50 (IL-17A : IL-17RA binding) | IC50 ([1]; Homo sapiens, Keratinocyte) | IC50 [1] |
| --- | --- | --- | --- |
| CC(C)n1nccc1C(=O)N[C@@H](COC1CC(F)(F)C1)c1nc2ccc([C@H](NC(=O)CC3CC(F)(F)C3)C3CC3)cc2[nH]1 [Example 257, N—((R)-1-(6-((R)-Cyclopropyl(2-(3,3-difluorocyclobutyl)acetamido)methyl)-1H-benzo[d]imidazol-2-yl)-2-(3,3-difluorocyclobutoxy)ethyl)-1-isopropyl-1H-pyrazole-5-carboxamide] | > 100 nM | > 100 nM | – |
| Cc1nonc1C(=O)N[C@@H](COC1CC(F)(F)C1)c1nc2ccc([C@H](NC(=O)CC3CC(F)(F)C3)C3CC3)cc2[nH]1 [Example 256, N—((R)-1-(6-((R)-Cyclopropyl(2-(3,3-difluorocyclobutyl)acetamido)methyl)-1H-benzo[d]imidazol-2-yl)-2-(3,3-difluorocyclobutoxy)ethyl)-4-methyl-1,2,5-oxadiazole-3-carboxamide] | > 100 nM | > 100 nM | – |
